For data set [1], the system named is fatty acid synthase (FAS) mRNA. In words: FAS mRNA levels in HepG2 cells by quantitative RT-PCR. Conditions: 30 μM (0.03 mM) compound, 6 hours, qRT-PCR. Type of data set: cell-based, human. Here is the method: (§1) HepG2, HEK293 cells, and MEFs were cultured at 37° C. and 5% CO2 in Dulbecco's modified Eagle's medium (DMEM; Sigma), supplemented with […] of penicillin-streptomycin (GIBCO-BRL), 10% (or otherwise indicated) fetal bovine serum (Hyclone), and 20 mM Glutamine.
(§2) Total RNA was extracted from cells with Trizol (Invitrogen, Carlsbad, Calif.) and quantified with an Agilent 2100 Bioanalyzer (Agilent Technologies, Santa Clara, Calif.). For mRNA quantification, 2 ug of RNA was converted to cDNA with a High Capacity cDNA Reverse Transcription kit (Applied Biosystems, Foster City, Calif.), and transcript levels of relevant genes were determined by real-time, quantitative PCR with an ABI 7300 Real Time PCR machine according to the manufacturers instructions.
(§3) HepG2 and FAO cells as well as primary rat hepatocytes were cultured at 37° C. and 5% CO2 in Dulbecco's modified Eagle's medium (DMEM; Sigma, St. Louis, Mo.), supplemented with […] of penicillin-streptomycin (P/S, GIBCO-BRL), 10% fetal bovine serum (FBS, Hyclone) and 20 mM glutamine. Primary rat hepatocytes were isolated using a method as described previously (20), and plated onto collagen-coated 6-cm dishes (3×10^6 cell/dish) in DMEM containing 10% FBS; […] P/S, 20 mM glutamine, 100 nM insulin and 1 μM dexamethasone. After 4 hours of culture, non-adherent cells were washed away with 1×PBS. The remaining hepatocytes were cultured or treated in regular DMEM medium.
(§4) Total RNA was extracted from cells with Trizol (Invitrogen, Life Technologies, Carlsbad, Calif.) and quantified with an Agilent 2100 Bioanalyzer. For mRNA quantification, 2 μg of RNA was converted to cDNA with a High Capacity cDNA Reverse. Transcription kit (Applied Biosystems, Foster City, Calif.), and transcript levels of relevant genes were determined by real-time, quantitative PCR with an ABI 7300 Real Time PCR machine according to the manufacturer's instructions. (PCR primer information is available upon request)

Data set [2] deals with HMG-CoA reductase (HMGCR) mRNA. As to the kind of experiment: HMG-CoA reductase mRNA levels in HepG2 cells by quantitative RT-PCR. The format is cell-based, human. Conditions: 6 hours; for HMG-CoA reductase mRNA levels: 0.03 mM compound. Here is the method: as §1, §2, §3, §4
Data set [3] relates to HepG2 cells. In words: Palmitate synthesis in HepG2 cells (deuterated water GC/MS). The format is cell-based, human. Conditions: HepG2 cells as printed. Here is the method: (§5) Quantitative measurement of fatty acids and cholesterol synthesis Fatty acids and cholesterol synthesis rate was determined using the deuterated water—GC/MS method as described previously.
Data set [4] relates to HepG2 cells. As to the kind of experiment: Cytotoxicity in HepG2 cells. Type of data set: cell-based, human. The settings on record: data not shown.
The test system of data set [5] is FAO cells. As to the kind of experiment: Palmitate synthesis rate in FAO cells (deuterium enrichment, GC/MS). The format is cell-based, rat. Conditions: 20 μM, 12 hours, 100 nM insulin. Here is the method:
as §3, with “medium. Fatty acids and cholesterol synthesis rate was, determined using the deuterium enrichment method followed by GC/MS analysis. Briefly, cells were cultured in regular DMEM medium containing 10% 2H2O for 18 hours. Fatty acids and cholesterol were purified by extraction with organic solvents chloroform/methanol and quantitatively measured by GC/MS. The synthesis rates were presented as the percentage of ^2H-containing palmitate or cholesterol in total amount of palmitate or cholesterol.” for “medium.”

Data set [6] relates to HepG2 cells. In words: Cholesterol synthesis in HepG2 cells (deuterated water GC/MS). Conditions: 20 μM, 12 hours. Type of data set: cell-based, human. Here is the method:
as §5

Data set [7] in a line: Toxic responses in mice under standard chow, osmotic pumps. Conditions: one week, total of 0.6 mg/g body weight by osmotic pumps. The format is in vivo.
Data set [8] has as its system 293 cells. In words: Cytotoxicity in 293 cells. Type of data set: cell-based. Conditions: 0.1 mM BF-102; data not shown.
The subject of data set [9] is FAO cells. As to the kind of experiment: Cholesterol synthesis rate in FAO cells (deuterium enrichment, GC/MS). The format is cell-based, rat. Conditions: 20 μM, 12 hours, 100 nM insulin. Here is the method: as §3, with “medium. Fatty acids and cholesterol synthesis rate was, determined using the deuterium enrichment method followed by GC/MS analysis. Briefly, cells were cultured in regular DMEM medium containing 10% 2H2O for 18 hours. Fatty acids and cholesterol were purified by extraction with organic solvents chloroform/methanol and quantitatively measured by GC/MS. The synthesis rates were presented as the percentage of ^2H-containing palmitate or cholesterol in total amount of palmitate or cholesterol.” for “medium.”

Data set [10] has as its system HMGCR mRNA. As to the kind of experiment: Hepatic HMGCR mRNA in HFD-fed mice by qRT-PCR. Conditions: 0.3 mg/g body weight, 1 week, osmotic pumps. The format is in vivo, C57BL/6J mice. Here is the method: (§6) Male C57BI/6J mice were purchased from The Jackson Laboratory at 8 weeks of age and were rendered insulin resistant by feeding an HFD (60% kcal from fat; D12492, Research Diets) for 4 weeks. Then the treatment with BF-102 or BF175 was performed for 1 week (osmotic pumps) or several weeks (in HFD).
as §4

The test system of data set [11] is FAS mRNA. In words: Hepatic FAS mRNA in HFD-fed mice by qRT-PCR. The format is in vivo, C57BL/6J mice. The settings on record: 0.3 mg/g body weight, 1 week, osmotic pumps. On the procedure:
as §6, §4

For `CC1(C)OB(c2ccc(C=Cc3cc(Cl)cc(Cl)c3)cc2)OC1(C)C` [MD131, 3,5-dichloro-4/-(4,4,5,5-Tetramethyl-1,3,2-dioxaborolan-2-yl)stilbene], the “FAS mRNA levels” value in [1] is “strong inhibition”. In addition, the “HMG-CoA reductase mRNA levels” value in [2] was “strong inhibition”.
With `CC1(C)OB(c2ccc(C=Cc3ccc(O)cc3)cc2)OC1(C)C` [BF-102, 4-{2-[4-(4,4,5,5-Tetramethyl-[1,3,2]dioxaborolan-2-yl)-phenyl]-vinyl}-phenol], the palmitate synthesis entry in data set [3] is listed as “inhibits”. Moreover, in data set [4] (0.1 mM BF-102), the “cytotoxicity in HepG2 cells” value is on record as “no significant cytotoxicity”. The “toxicity to HepG2 cells” value in data set [4] (at the doses used) is “not toxic”. Further, the “FAS mRNA levels” value in data set [1] is recorded as “strong inhibition”; in [1] (listed as BF-02), “significant decrease”. For the same molecule, the “synthesis rate of palmitate” value in [5] is listed as “significantly decrease”. Besides, in [6], the cholesterol synthesis result is “inhibits”. Further, the toxic responses result in [7] is recorded as “no apparent toxic responses”. In [2], the “HMG-CoA reductase mRNA levels” value is recorded as “strong inhibition”. Besides, in data set [2] (indicated concentrations), the “mRNA levels of HMGCR, dose dependence” value is listed as “dose-dependently decrease”. Besides, the “cytotoxicity in 293 cells” value in [8] is “no significant cytotoxicity”. Besides, in data set [9], the “synthesis rate of cholesterol” value is “dramatically decrease”. For the same molecule, in data set [10], the “reduction of hepatic mRNA levels of HMGCR vs DMSO controls” value is approximately 5 fold. Besides, the “hepatic FAS mRNA levels” value in data set [11] is “significantly down regulated”.

These data come from patent US20140051661A1, “NOVEL LIPOGENIC INHIBITORS AND USES THEREOF” (The Texas A&M University System, priority 2011, published 2014).
